Measurements as given in ChEMBL document CHEMBL1128181, “Structure-based design of nonpeptidic HIV protease inhibitors from a cyclooctylpyranone lead structure” (J Med Chem, 1995).

The compounds below were run against Human immunodeficiency virus type 1 protease (Human immunodeficiency virus 1, UniProt Q72874) (assay: Inhibitory activity against HIV-I protease.).

In order of rising Ki:
1. CC(C)(C)OC(=O)N[C@@H](Cc1cnc[nH]1)C(=O)Nc1cccc(C(c2c(O)c3c(oc2=O)CCCCCC3)C2CC2)c1 (stereo partly specified)  0.003 µM
2. CC(C)(C)OC(=O)NCCC(=O)Nc1cccc(C(c2c(O)c3c(oc2=O)CCCCCC3)C2CC2)c1 (stereo unspecified)  0.004 µM
3. CC(C)(C)OC(=O)NCC(=O)Nc1cccc(C(c2c(O)c3c(oc2=O)CCCCCC3)C2CC2)c1 (stereo unspecified)  0.0055 µM
4. C[C@H](NC(=O)OC(C)(C)C)C(=O)Nc1cccc(C(c2c(O)c3c(oc2=O)CCCCCC3)C2CC2)c1 (stereo partly specified)  0.0069 µM
5. CCCC1CCCCCCc2c1oc(O)c(C(c1ccccc1)C1CC1)c2=O (stereo in doubt; 11e)  0.009 µM
6. CC(C)(C)OC(=O)N[C@H](Cc1cnc[nH]1)C(=O)Nc1cccc(C(c2c(O)c3c(oc2=O)CCCCCC3)C2CC2)c1 (stereo partly specified)  0.011 µM
7. OC1=C(C(c2ccccc2)C2CC2)COC2=C1CCCCCCC2 (stereo unspecified)  0.0117 µM
8. CC(C)(C)OC(=O)NCCCC(=O)Nc1cccc(C(c2c(O)c3c(oc2=O)CCCCCC3)C2CC2)c1 (stereo unspecified)  0.014 µM
9. O=c1c2c(oc(O)c1C(c1ccccc1)C1CC1)C(CC1CC1)CCCCC2 (stereo unspecified)  0.024 µM
10. CCCC(=O)Nc1cccc(C(c2c(O)c3c(oc2=O)CCCCCC3)C2CC2)c1 (stereo unspecified)  0.024 µM
11. O=c1c2c(oc(O)c1C(c1ccccc1)C1CC1)C(CC1CC1)CCCCCC2 (stereo unspecified)  0.024 µM
12. CCCC1CCCCCCc2c1oc(O)c(C(c1ccccc1)C1CC1)c2=O (stereo in doubt; 11)  0.026 µM
13. COCCC1CCCCCc2c1oc(O)c(C(c1ccccc1)C1CC1)c2=O (stereo unspecified)  0.028 µM
14. CC(C)CC1CCCCCCc2c1oc(O)c(C(c1ccccc1)C1CC1)c2=O (stereo unspecified)  0.03 µM
15. CCCCC1CCCCCCc2c1oc(O)c(C(c1ccccc1)C1CC1)c2=O (stereo unspecified)  0.031 µM
16. C[C@@H](NC(=O)OC(C)(C)C)C(=O)Nc1cccc(C(c2c(O)c3c(oc2=O)CCCCCC3)C2CC2)c1 (stereo partly specified)  0.032 µM
17. CCC1CCCCCCc2c1oc(O)c(C(c1ccccc1)C1CC1)c2=O (stereo unspecified)  0.033 µM
18. O=C(Cc1ccccc1)Nc1cccc(C(c2c(O)oc3c(c2=O)CCCCCC3)C2CC2)c1 (stereo unspecified)  0.033 µM
19. O=C(Nc1cccc(C(c2c(O)oc3c(c2=O)CCCCCC3)C2CC2)c1)c1ccccc1 (stereo unspecified)  0.042 µM
20. CC(C)(C)OC(=O)N1CCC[C@H]1C(=O)Nc1cccc(C(c2c(O)c3c(oc2=O)CCCCCC3)C2CC2)c1 (stereo partly specified)  0.043 µM
21. CC(C)CCC1CCCCCCc2c1oc(O)c(C(c1ccccc1)C1CC1)c2=O (stereo unspecified)  0.05 µM
22. O=C(Nc1cccc(C(c2c(O)oc3c(c2=O)CCCCCC3)C2CC2)c1)c1ccc(F)cc1 (stereo unspecified)  0.055 µM
23. O=c1c2c(oc(O)c1C(C1CC1)C1CC1)CCCCCCC2  0.057 µM
24. CCC(c1ccccc1)c1c(O)c2c(oc1=O)CCCCCCC2 (stereo unspecified)  0.0583 µM
25. CCNC(=O)Nc1cccc(C(c2c(O)c3c(oc2=O)CCCCCC3)C2CC2)c1 (stereo unspecified)  0.072 µM
26. O=c1c2c(oc(O)c1C(c1ccccc1)C1CC1)CCCCCC2 (stereo unspecified)  0.096 µM
27. O=c1c2c(oc(O)c1C(c1ccccc1)C1CC1)C(CC1CCCCO1)CCCCCC2 (stereo unspecified)  0.12 µM
28. CCC(c1ccccc1)c1c(O)c2c(oc1=O)C(Cc1ccccc1)CCCCCC2 (stereo unspecified)  0.266 µM
29. CCC(c1ccccc1)c1c(O)c2c(oc1=O)C(C)CCCCCC2 (stereo unspecified)  0.33 µM
30. O=C(Nc1ccccc1)Nc1cccc(C(c2c(O)oc3c(c2=O)CCCCCC3)C2CC2)c1 (stereo unspecified)  0.45 µM
31. O=C(/C=C/c1ccccc1)Nc1cccc(C(c2c(O)oc3c(c2=O)CCCCCC3)C2CC2)c1 (stereo unspecified)  0.47 µM
